{"source": "patent US10456377B2", "about": "“Anesthetic comprising tetracaine and a vasoconstrictor for administration to a subject” (St. Renatus, LLC, priority 2009, dated 2019)", "tested_on": "maxillary dentition", "assay": "Intranasal tetracaine HCl solution, anesthesia of the maxillary dentition by electric pulp testing (EPT)", "format": "in vivo, human", "conditions": "nasal spray, tetracaine doses between 4 and 16 mg, 80 subjects", "protocol": "The purpose of this study was to identify an effective and safe dosage of an intranasally administered tetracaine hydrochloride solution for obtaining anesthesia of the maxillary dentition. Healthy human volunteers were administered a dose of tetracaine HCl delivered as a nasal spray using a BD Accuspray™ device. The administration of the local anesthetic varied by total dose, concentration, and volume, and it included single doses in a single nostril, split doses in the same nostril, and divided doses in both nostrils. Different techniques regarding direction of spray were also investigated.\nThe efficacy of tetracaine hydrochloride in 80 subjects was measured by monitoring pain levels via electric pulp testing (EPT). EPT testing was accomplished by passing a current through the tooth to be tested wherein the lowest level of current is a “0” and the highest level of current is an “80.” Subjects are exposed to an increasing amount of current (starting at 0 and ramping up to 80). If any pain was felt by the subject, the test was stopped and the EPT reading was recorded.\nSubjects received tetracaine doses between 4 and 16 mg.", "note": "Counter-ions that a name gives are not always drawn."}
{"compound": "CCCCNc1ccc(C(=O)OCCN(C)C)cc1", "note": "[tetracaine HCl, 2-(dimethylamino)ethyl 4-(butylamino)benzoate]", "values": [{"measurement": "maxillary arch anesthesia, as indicated by an EPT score of 80", "value": "did not result in maxillary arch anesthesia"}]}
